Test results reported in article PMC9012159, “A comparative biodistribution study of polymeric and lipid-based nanoparticles” (Drug Delivery and Translational Research, 2022).
Values belong to the molecule of their own block, whether it stands above or below them.

Assay: PEBCA pharmacokinetics and biodistribution study in rats (Cbz and metabolites by LC-MS/MS)
Type: in vivo, rat
Conditions: for detection of possible Cbz metabolite in samples: all tissue and serum samples after PEBCA, LC-MS/MS; for peak concentration ratio organ:blood, fold higher for Cbz than for IR780-oleyl: highest doses
Procedure: Male Wistar rats were purchased at 8 weeks of age from Janvier Labs (France). They were housed in groups of four in individually ventilated cages in a specific pathogen-free environment at 22–23 °C and 50–60% relative humidity, on a 12-h light/dark cycle and with 70 air changes per hour and free access to food and sterile water. They were fed RM1 expanded pellets (Special Diets Services, Essex, UK), and the cages were enriched with housing, nesting material and gnaw sticks. All institutional and national guidelines for the care and use of laboratory animals were followed. Experiments were performed in Norway.
During all experiments, the animals were anaesthetized by inhalation of 2–3% isoflurane (Baxter, Deerfield, IL, USA). Anaesthesia was maintained with isoflurane in 0.4 L/min O2 and 0.6 L/min N2O.
To perform the pharmacokinetics and biodistribution study, the animals were separated into 2 groups according to dose: • Low dose PEBCA-Cbz, 0.5 mg/kg Cbz (4.4 mg/kg NPs) • High dose PEBCA-Cbz, 3.5 mg/kg Cbz (30.5 mg/kg NPs)
Details about the treatment groups are available in Table 1. Before injection, the particles were diluted in 0.9% saline to a concentration that corresponded to an injection volume of 2 mL/kg. In addition to the treated animals, 6 sham-treated (injected with 0.9% saline 2 mL/kg) animals were used. The sham-treated animals were euthanized at 2, 4 and 14 days, two at each time point. Animals were injected intravenously once.
Blood samples on time points 1–30 min and 4 h (Table 2) were performed on conscious animals, and all other blood samples were collected during exsanguination. The leg of the animal was shaved to expose the saphenous vein. Petrolatum was applied to the shaved area and the saphenous vein was punctured using a 19G needle. Into tubes containing blood clotting activator, 300–500 µL blood was collected (Microvette 500 Serum, Sarstedt AG & Co. KG, Germany). The tubes were turned 3–4 times, left for 60 min in upright position at room temperature to allow clot formation before centrifugation at 10 000 rcf for 5 min. The serum was immediately transferred to new tubes and stored at − 80 °C until LC–MS/MS analysis.
Cbz was quantified by LC–MS/MS, using the same instrumentation and chromatographic column as described for IR-780-oleyl quantification above. […] The flow rate was constant at 0.5 mL/min and the injection volume was 1 µL. […] Similarly, Cbz-d6 and docetaxel-d5 internal standards were monitored at m/z 864.4 → 583.2 and 835.5 → 554.3, respectively.
7-Methyl-docetaxel was purchased from SynZeal Research (Moraiya, India, catalogue number SZ-D031010), 10-methyl-docetaxel from Eos Med Chem (Jinan, China, custom synthesis), docetaxel from Sigma (Fluka, product number 01885) and 7-epi-docetaxel from Santa Cruz Biotechnology (Dallas, USA, product number SC-210610).
The Cbz-d6 and docetaxel-d5 internal standards were purchased from Toronto Research Chemicals (Toronto, Canada, catalogue numbers C046502 and D494423, respectively). A mix of the two internal standards was added to all standards and samples to yield a final concentration of 50 ng/mL.

detection of possible Cbz metabolite in samples (rat): no 7-epi-docetaxel
SMILES: CC(=O)O[C@@]12CO[C@@H]1C[C@@H](O)[C@@]1(C)C(=O)[C@H](O)C3=C(C)[C@@H](OC(=O)[C@H](O)[C@@H](NC(=O)OC(C)(C)C)c4ccccc4)C[C@@](O)([C@@H](OC(=O)c4ccccc4)[C@H]21)C3(C)C [7-epi-docetaxel]

SMILES: CO[C@H]1C[C@H]2OC[C@@]2(OC(C)=O)[C@H]2[C@H](OC(=O)c3ccccc3)[C@]3(O)C[C@H](OC(=O)[C@H](O)[C@@H](NC(=O)OC(C)(C)C)c4ccccc4)C(C)=C([C@@H](O)C(=O)[C@]12C)C3(C)C [7-methyl-docetaxel]
detection of possible Cbz metabolite in samples (rat): No 7-methyl-docetaxel was observed in any sample

metabolite concentration in brain (Cbz metabolites after PEBCA, even at high dose administered, rat, negligible): 0.2 ng/g
metabolite concentration in serum relative to Cbz in the same sample (after PEBCA, rat serum, found only up to the 15-min sampling point): ≤ 0.5%
SMILES: CO[C@H]1C(=O)[C@@]2(C)[C@H]([C@H](OC(=O)c3ccccc3)[C@]3(O)C[C@H](OC(=O)[C@H](O)[C@@H](NC(=O)OC(C)(C)C)c4ccccc4)C(C)=C1C3(C)C)[C@]1(OC(C)=O)CO[C@@H]1C[C@@H]2O [10-m-Doc, 10-methyl-docetaxel]

sampling point at which the organ:blood ratio reaches its peak (Cbz after PEBCA, in most cases, rat): 24 h
dose response (concentration ratio normalized to injected dose) (Cbz after PEBCA, majority of organs and time points, rat): > 1
dose response (concentration ratio normalized to injected dose) (Cbz after PEBCA, serum, rat): < 1
Lung Cmax (Cbz measured after PEBCA high dose, 3.5 mg/kg Cbz (30.5 mg/kg NPs) i.v., rat, n = 4): 7593 ng/g
measured concentration ratio all organs vs. blood, fold higher for cabazitaxel as compared to IR780-oleyl (all organs, rat (abstract)): more than 50 fold
peak concentration ratio organ:blood, fold higher for Cbz than for IR780-oleyl (all tissues except liver, rat): at least 100 fold
peak concentration ratio organ:blood, fold higher for Cbz than for IR780-oleyl (liver, rat): about 50 fold
decrease in serum concentration of Cbz (within the first 4 h after PEBCA injection, rat serum): ~100 fold
SMILES: CO[C@H]1C(=O)[C@]2(C)[C@@H](OC)C[C@H]3OC[C@@]3(OC(C)=O)[C@H]2[C@H](OC(=O)c2ccccc2)[C@]2(O)C[C@H](OC(=O)[C@H](O)[C@@H](NC(=O)OC(C)(C)C)c3ccccc3)C(C)=C1C2(C)C [Cbz, cabazitaxel]
